Test results from patent US7186825B2, “Conformationally restricted polyamine analogs as disease therapies” (Cellgate, Inc., priority 1999, dated 2007).
Like-named read-outs stand apart in the source and are kept apart here.

Experiments:
Assay type in all cases: cell-based
[1] = tested on: human prostate cancer cells PC3; experiment: MTT assay, survival/growth of cultured human prostate cancer cells PC3; settings: for EC50: figure legends, survival of cultured PC3 cells, MTT, six days after drug treatment, read-out: ED50 (the source's name); for IC50: read-out: concentration needed for 50% growth inhibition (ID50), Table 3, PC-3
Procedure: (§1) Human breast cancer cell line MCF7 was grown in Richter's Improved Modified Eagle's Medium supplemented with 10% fetal bovine serum (FBS) and 2.2 g/L sodium bicarbonate. Human brain tumor cell line U251 MG-NCI was grown in Dulbecco's Modified Eagle's Medium supplemented with 10% FBS. Human lung cancer cell line A549 was grown in Ham's F-12K medium (Cellgro, Mediatech, Inc., VA), supplemented with 10% FBS and 2 mM L-glutamine. Human colon cancer cell line HT29 was cultured in McCoy's 5A medium (Gibco, BRL, Gaithersburg, Md.) supplemented with 10% FBS. Human prostate cancer cell lines PC-3, LNCAP and DuPro were grown in RPMI 1640 Medium (Cellgro, Mediatech, Inc., VA) supplemented with 10% FBS. Another human prostate cancer cell line DU145 was grown in Dulbecco's Modified Eagle's Medium (Gibco, BRL, Gaithersburg, Md.) supplemented with 5% FBS. The A549, MCF7, PC3, LNCAP and DuPro cell lines were cultured in 100 units/mL penicillin and 100 μg/mL streptomycin. HT29 and U251MG cell lines were grown in 50 μg/mL gentamycin (Gibco, BRL, Gaithersburg, Md.). DU145 cell line was maintained in 1% antibitic-antimycotic solution (Sigma, St. Louis, Mo.). The cell cultures were maintained at 37° C. in 5% CO2/95% humidified air. DuPro cells were obtained from M. Eileen Dolan, University of Chicago. All other cells are available from the American Type Culture Collection, Rockville, Md.
(§2) A conventional MTT assay was used to evaluate percent cell survival. Exponentially growing monolayer cells were plated in 96-well plates at a density of 500 cells per well and allowed to grow for 24 hours. Serial dilutions of the drugs were added to the wells. Six days after drug treatment, 25 μl of MTT solution (5 mg/ml) was added to each well and incubated for 4 hours at 37° C. Then 100 μl of lysis buffer (20% sodium dodecyl sulfate, 50% DMF, and 0.8% acetic acid, pH 4.7) was added to each well and incubated for an additional 22 hours. A microplate reader (“EMAX”-brand, Molecular Devices, Sunnyvale, Calif.) set at 570 nm was used to determine the optical density of the cultures. Results are expressed as a ratio of the optical density in drug-treated wells to the optical density in wells treated with vehicle only.
(§3) Using the protocols of Example 2, the porphyrin-polyamine conjugates were tested for activity in vitro in various cancer cell lines.

[2] = tested on: human prostate cancer cells DU145; experiment: MTT assay, survival/growth of cultured human prostate cancer cells DU145; settings: for EC50: figure legends, survival of cultured DU145 cells, MTT, six days after drug treatment, read-out: ED50 (the source's name); for IC50: read-out: concentration needed for 50% growth inhibition (ID50), Table 3, DU-145
Procedure: as §1, §2, §3

[3] = tested on: human prostate cancer cells DUPRO; experiment: MTT assay, survival/growth of cultured human prostate cancer cells DUPRO; settings: for EC50: figure legends, survival of cultured DUPRO cells, MTT, six days after drug treatment, read-out: ED50 (the source's name); for IC50: read-out: concentration needed for 50% growth inhibition (ID50), Table 3, DUPRO
Procedure: as §1, §2, §3

[4] = tested on: human colon cancer cells HT29; experiment: MTT assay, survival/growth of cultured human colon cancer cells HT29; settings: for EC50: figure legends, survival of cultured HT29 cells, MTT, six days after drug treatment, read-out: ED50 (the source's name); for IC50: read-out: concentration needed for 50% growth inhibition (ID50), Table 3, HT-29
Procedure: (§4) As shown in Table 3 and FIGS. 1–32, several novel conformationally restricted polyamine analogs were tested for anti-proliferative properties against cancer cells.
as §1, §2

[5] = tested on: human lung cancer cells A549; experiment: MTT assay, survival/growth of cultured human lung cancer cells A549; settings: for EC50: figure legends, survival of cultured A549 cells, MTT, six days after drug treatment, read-out: ED50 (the source's name); for IC50: read-out: concentration needed for 50% growth inhibition (ID50); for IC50 / concentration needed for 50% growth inhibition (ID50): Table 3, A549
Procedure: as §4, §1, §2

[6] = tested on: human breast cancer cells MCF7; experiment: MTT assay, survival/growth of cultured human breast cancer cells MCF7; settings: for EC50: figure legends, survival of cultured MCF7 cells, MTT, six days after drug treatment, read-out: ED50 (the source's name); for IC50: read-out: concentration needed for 50% growth inhibition (ID50), Table 3, MCF7
Procedure: as §4, §1, §2

[7] = tested on: human brain tumor cells U251 MG NCI; experiment: MTT assay, survival/growth of cultured human brain tumor cells U251 MG NCI; settings: for EC50: figure legends, survival of cultured U251 MG NCI cells, MTT, six days after drug treatment, read-out: ED50 (the source's name); for IC50: Table 3, U251MG
Procedure: as §1, §2

[8] = Homo sapiens, U-251, read-out: concentration needed for 50% growth inhibition (ID50)
[9] = read-out: concentration needed for 50% growth inhibition (ID50)

CCNCCCNCCCNCCCNCC [BE-333, N1,N11-diethylnorspermine, reference compound]
EC50 [1]: 340 nM
EC50 [2]: 120 nM
EC50 [3]: 900 nM
EC50 [4]: 300 nM
EC50 [5]: 300 nM
EC50 [6]: 3700 nM
EC50 [7]: 230 nM

CCNCCCNCCCCNCCCNCC [BE-343, N1,N12-bis(ethyl) spermine, reference compound]
EC50 [1]: 240 nM
EC50 [2]: 44 nM
EC50 [4]: 600 nM
EC50 [5]: 200 nM
EC50 [6]: 500 nM
EC50 [7]: 140 nM

CNCCCNC[C@H]1CC[C@H]1CNCCCNC [SL-11090]
IC50 ([1]; Homo sapiens): > 31200 nM
IC50 ([2]; Homo sapiens): > 31200 nM
IC50 ([4]; Homo sapiens): > 31200 nM
IC50 ([5]; Homo sapiens): > 31200 nM
IC50 ([6]; Homo sapiens): > 31200 nM
IC50 [7, 8]: > 31200 nM

CCNCCCNCC#CCNCCCNCC [SL-11091]
EC50 ([1]; Homo sapiens, PC-3, 144 h): > 31200 nM
IC50 ([1]; Homo sapiens): > 31200 nM
EC50 ([2]; Homo sapiens, DU-145, 144 h): 4330 nM
IC50 ([2]; Homo sapiens): 1330 nM
EC50 ([4]; Homo sapiens, HT-29, 144 h): > 31200 nM
IC50 ([4]; Homo sapiens): > 31200 nM
EC50 ([5]; Homo sapiens, 144 h): > 31200 nM
IC50 ([5]; Homo sapiens): > 31200 nM
EC50 ([6]; Homo sapiens, 144 h): > 31200 nM
IC50 ([6]; Homo sapiens): > 31200 nM
EC50 ([7]; Homo sapiens, U-251, 144 h): > 31200 nM
IC50 [7, 8]: > 31200 nM

CNCCCNCC#CCNCCCNC [SL-11092]
IC50 ([1]; Homo sapiens): > 31200 nM
IC50 ([2]; Homo sapiens): 1700 nM
IC50 ([4]; Homo sapiens): > 31200 nM
IC50 ([5]; Homo sapiens): > 31200 nM
IC50 ([6]; Homo sapiens): > 31200 nM
IC50 [7, 8]: > 31200 nM

CCNCCCNCc1ccccc1CNCCCNCC [SL-11094]
IC50 [1]: > 31200 nM
EC50 [2]: 15400 nM
IC50 [2]: 12600 nM
IC50 [4]: 28800 nM
concentration needed for 50% growth inhibition (ID50) [5]: >31250 nM
IC50 [6]: > 31200 nM
IC50 [7, 9]: > 31200 nM

CCNCCCCNC/C=C/CNCCCCNCC [SL-11101]
EC50 ([1]; Homo sapiens, PC-3, 144 h): 7700 nM
IC50 ([1]; Homo sapiens): 7700 nM
EC50 ([2]; Homo sapiens, DU-145, 144 h): 220 nM
IC50 ([2]; Homo sapiens): 218 nM
EC50 ([3]; Homo sapiens, 144 h): 850 nM
IC50 ([3]; Homo sapiens): 850 nM
IC50 ([4]; Homo sapiens): 5200 nM
EC50 ([5]; Homo sapiens, 144 h): 2200 nM
IC50 ([5]; Homo sapiens): 150 nM
EC50 ([6]; Homo sapiens, 144 h): > 31200 nM
IC50 ([6]; Homo sapiens): > 31200 nM
EC50 ([7]; Homo sapiens, U-251, 144 h): 1700 nM
IC50 [7, 8]: 1700 nM

CCNCCCCNC/C=C\CNCCCCNCC [SL-11102]
EC50 [1]: > 31200 nM
IC50 [1]: > 31200 nM
EC50 [2]: 30 nM
IC50 [2]: 27 nM
EC50 [3]: 150 nM
IC50 [3]: 150 nM
IC50 [4]: 730 nM
concentration needed for 50% growth inhibition (ID50) [5]: 12400 nM
EC50 [5]: 150 nM
IC50 [6]: > 31200 nM
EC50 [7]: 150 nM
IC50 [7, 9]: 150 nM

CCNCCCCNCC#CCNCCCCNCC [SL-11103]
EC50 ([1]; Homo sapiens, PC-3, 144 h): > 31200 nM
IC50 ([1]; Homo sapiens): > 31200 nM
EC50 ([2]; Homo sapiens, DU-145, 144 h): 2800 nM
IC50 ([2]; Homo sapiens): 2800 nM
IC50 ([4]; Homo sapiens): 29400 nM
EC50 ([5]; Homo sapiens, 144 h): 12400 nM
IC50 ([5]; Homo sapiens): > 31200 nM
EC50 ([6]; Homo sapiens, 144 h): > 31200 nM
IC50 ([6]; Homo sapiens): > 31200 nM
EC50 ([7]; Homo sapiens, U-251, 144 h): 9500 nM
IC50 [7, 8]: 9500 nM

CCNCCCCNCc1ccccc1CNCCCCNCC [SL-11104]
IC50 [1]: > 31200 nM
EC50 [2]: 9400 nM
IC50 [2]: 9400 nM
IC50 [4]: 25800 nM
concentration needed for 50% growth inhibition (ID50) [5]: 430 nM
IC50 [6]: > 31200 nM
EC50 [7]: 14700 nM
IC50 [7, 9]: 14700 nM

CCNC/C=C\CNC/C=C\CNCCCCNCC [SL-11119]
IC50 [1]: > 31200 nM
EC50 [2]: 80 nM
IC50 [2]: 80 nM
EC50 [3]: 440 nM
IC50 [3]: 440 nM
IC50 [4]: 970 nM
